Measured values published in the supplement of paper PMC10307832.

compound: Cn1c(=O)n(-c2ccc(C(C)(C)C#N)cc2)c2c3cc(-c4cnc5ccccc5c4)ccc3ncc21 [Dactolisib] + Cc1nc(NC(=O)N2CCC[C@H]2C(N)=O)sc1-c1ccnc(C(C)(C)C(F)(F)F)c1 [Alpelisib] (partner 2 µM); assay: relative viability (nuclei count vs DMSO), 5 days (fraction); higher = more cells survive; conditions: first compound 0.002 µM
Summary of the method: (§1)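 Lung cancer cell lines in 1536-well plates were dosed by pin tool the day after seeding, either with one drug alone or with a fixed anchor-drug dose plus five library-drug doses (not always all listed) in √10 steps. After 5 days, cells were fixed and their nuclei stained in one step (final 0.05% Triton X-100, 1% formaldehyde, 1 ug/ml Hoechst), then counted on 4× images. Relative viability is the nuclei count in treated wells divided by that in vehicle wells. Values are medians of duplicate plates.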

Cell Line | relative viability
BEN | 1.01
HARA | 1.15
HCC-78 | 0.358
NCI-H322M | 0.899
LCLC-97TM1 | 0.304
A-427 | 1.16
NCI-H441 | 1.05
NCI-H1734 | 0.686
NCI-H460 | 0.723
NCI-H2347 | 1.2
NCI-H1395 | 0.863
201T | 1.01
NCI-H1915 | 1.1
HCC-827 | 0.964
LXF-289 | 1.12
NCI-H23 | 0.629
NCI-H647 | 1.33
CAL-12T | 1.53
NCI-H1651 | 1.11
EPLC-272H | 0.961
NCI-H1355 | 0.941
NCI-H3122 | 0.792
NCI-H1437 | 1
NCI-H1755 | 0.944
HCC-15 | 0.941
NCI-H1793 | 0.588
PC-14 | 0.946
EKVX | 0.937

same assay, conditions: first compound 0.006325 µM

Cell Line | relative viability
NCI-H2170 | 0.754
NCI-H2405 | 0.647
HOP-62 | 1.09
LU99A | 0.333
BEN | 0.89
HARA | 0.78
HCC-78 | 0.33
NCI-H322M | 0.839
LCLC-97TM1 | 0.218
A-427 | 1.01
NCI-H441 | 0.74
NCI-H1734 | 0.582
NCI-H460 | 0.352
NCI-H2347 | 1.09
NCI-H1395 | 0.757
201T | 0.994

Cell Line | relative viability
NCI-H1915 | 1.06
HCC-827 | 1.01
LXF-289 | 0.973
NCI-H23 | 0.607
NCI-H647 | 0.811
CAL-12T | 1.13
NCI-H1651 | 0.79
EPLC-272H | 0.752
NCI-H1355 | 0.794
NCI-H3122 | 0.729
NCI-H1437 | 0.991
NCI-H1755 | 0.898
HCC-15 | 0.832
NCI-H1793 | 0.4
PC-14 | 0.932
EKVX | 0.878

same assay, conditions: first compound 0.02 µM

Cell Line | relative viability
NCI-H2170 | 0.706
NCI-H2405 | 0.646
HOP-62 | 0.876
LU99A | 0.273
BEN | 0.808
HARA | 0.809
HCC-78 | 0.282
NCI-H322M | 0.8
LCLC-97TM1 | 0.186
A-427 | 1.03
NCI-H441 | 0.685
NCI-H1734 | 0.586
NCI-H460 | 0.35
NCI-H2347 | 0.927
NCI-H1395 | 1.23
201T | 0.986

Cell Line | relative viability
NCI-H1915 | 1.05
HCC-827 | 0.943
LXF-289 | 1.01
NCI-H23 | 0.615
NCI-H647 | 0.543
CAL-12T | 1.2
NCI-H1651 | 0.69
EPLC-272H | 0.779
NCI-H1355 | 0.723
NCI-H3122 | 0.652
NCI-H1437 | 0.918
NCI-H1755 | 0.872
HCC-15 | 0.874
NCI-H1793 | 0.241
PC-14 | 0.887
EKVX | 0.759

same assay, conditions: first compound 0.06325 µM

Cell Line | relative viability
NCI-H2170 | 0.479
NCI-H2405 | 0.359
HOP-62 | 0.468
LU99A | 0.242
BEN | 0.47
HARA | 0.594
HCC-78 | 0.247
NCI-H322M | 0.609
LCLC-97TM1 | 0.134
A-427 | 0.733
NCI-H441 | 0.429
NCI-H1734 | 0.361
NCI-H460 | 0.0712
NCI-H2347 | 0.689
NCI-H1395 | 0.602
201T | 0.98

Cell Line | relative viability
NCI-H1915 | 0.747
HCC-827 | 0.468
LXF-289 | 0.927
NCI-H23 | 0.356
NCI-H647 | 0.164
CAL-12T | 0.205
NCI-H1651 | 0.461
EPLC-272H | 0.527
NCI-H1355 | 0.385
NCI-H3122 | 0.486
NCI-H1437 | 0.836
NCI-H1755 | 0.655
HCC-15 | 0.417
NCI-H1793 | 0.21
PC-14 | 0.407
EKVX | 0.463

same assay, conditions: first compound 0.2 µM

Cell Line | relative viability
NCI-H2170 | 0.26
NCI-H2405 | 0.273
HOP-62 | 0.323
LU99A | 0.192
BEN | 0.277
HARA | 0.206
HCC-78 | 0.198
NCI-H322M | 0.511
LCLC-97TM1 | 0.151
A-427 | 0.578
NCI-H441 | 0.271
NCI-H1734 | 0.233
NCI-H460 | 0.0542
NCI-H2347 | 0.399
NCI-H1395 | 0.511
201T | 0.688

Cell Line | relative viability
NCI-H1915 | 0.519
HCC-827 | 0.359
LXF-289 | 0.597
NCI-H23 | 0.303
NCI-H647 | 0.125
CAL-12T | 0.206
NCI-H1651 | 0.422
EPLC-272H | 0.465
NCI-H1355 | 0.255
NCI-H3122 | 0.36
NCI-H1437 | 0.81
NCI-H1755 | 0.372
HCC-15 | 0.38
NCI-H1793 | 0.157
PC-14 | 0.252
EKVX | 0.369

compound: C1CCC(CC1)N(CCNCCC2=C3C(=C(C=C2)O)NC(=O)CO3)C(=O)CCNCCC4=CC(=C(C=C4)Cl)Cl [AZ505] + COc1cc2c(Oc3ccc(NC(=O)C4(C(=O)Nc5ccc(F)cc5)CC4)cc3F)ccnc2cc1OCCCN1CCOCC1 [Foretinib] (partner 0.25 µM); assay: as above; conditions: first compound 0.08 µM
Summary of the method: as §1

Cell Line | relative viability
NCI-H2170 | 1.05
NCI-H2405 | 0.755
HOP-62 | 1.06
BEN | 0.612
HARA | 0.85
HCC-78 | 0.575
NCI-H322M | 0.889
LCLC-97TM1 | 0.874
A-427 | 1.05
NCI-H441 | 0.909
NCI-H1734 | 0.785
NCI-H460 | 0.976
NCI-H1395 | 0.978
201T | 1.01
NCI-H1915 | 1.06
HCC-827 | 0.891
LXF-289 | 0.887
NCI-H23 | 0.944
NCI-H647 | 1.22
CAL-12T | 1.03
NCI-H1651 | 0.771
NCI-H1355 | 0.819
NCI-H3122 | 0.889
NCI-H1437 | 1.16
NCI-H1755 | 0.817
HCC-15 | 0.911
NCI-H1793 | 0.627
PC-14 | 0.922
EKVX | 0.586

same assay, conditions: first compound 0.253 µM

Cell Line | relative viability
NCI-H2170 | 1.07
NCI-H2405 | 0.776
HOP-62 | 1.13
LU99A | 0.987
BEN | 0.644
HARA | 0.963
HCC-78 | 0.631
NCI-H322M | 1
LCLC-97TM1 | 0.87
A-427 | 1.04
NCI-H441 | 0.97
NCI-H1734 | 0.811
NCI-H460 | 1.01
NCI-H2347 | 0.743
NCI-H1395 | 0.943
201T | 1.14

Cell Line | relative viability
NCI-H1915 | 1.11
HCC-827 | 1.08
LXF-289 | 0.972
NCI-H647 | 1.37
CAL-12T | 1.11
NCI-H1651 | 0.843
EPLC-272H | 0.704
NCI-H1355 | 1.01
NCI-H3122 | 0.993
NCI-H1437 | 1.26
NCI-H1755 | 0.913
HCC-15 | 1.04
NCI-H1793 | 0.735
PC-14 | 0.927
EKVX | 0.801

same assay, conditions: first compound 0.8 µM

Cell Line | relative viability
NCI-H2170 | 0.994
NCI-H2405 | 0.746
HOP-62 | 1.03
LU99A | 0.815
BEN | 0.693
HARA | 0.766
HCC-78 | 0.578
NCI-H322M | 0.952
LCLC-97TM1 | 0.888
A-427 | 0.997
NCI-H441 | 1.09
NCI-H1734 | 0.754
NCI-H460 | 0.982
NCI-H2347 | 0.719
NCI-H1395 | 0.899
201T | 1.07

Cell Line | relative viability
NCI-H1915 | 1
HCC-827 | 1.02
LXF-289 | 0.923
NCI-H23 | 0.865
NCI-H647 | 0.963
CAL-12T | 1.18
NCI-H1651 | 0.804
EPLC-272H | 0.635
NCI-H1355 | 0.992
NCI-H3122 | 0.837
NCI-H1437 | 1.21
NCI-H1755 | 0.893
HCC-15 | 1.03
NCI-H1793 | 0.758
PC-14 | 1.03
EKVX | 0.827

same assay, conditions: first compound 2.53 µM

Cell Line | relative viability
NCI-H2170 | 1.03
NCI-H2405 | 0.767
HOP-62 | 1.08
LU99A | 0.78
BEN | 0.675
HARA | 0.709
HCC-78 | 0.568
NCI-H322M | 0.946
LCLC-97TM1 | 0.86
A-427 | 1.1
NCI-H441 | 0.876
NCI-H1734 | 0.751
NCI-H460 | 1.03
NCI-H1395 | 0.999
201T | 1.06
NCI-H1915 | 0.977
HCC-827 | 1.08
LXF-289 | 0.96
NCI-H23 | 0.938
NCI-H647 | 1.19
CAL-12T | 1.22
NCI-H1651 | 0.603
EPLC-272H | 0.569
NCI-H1355 | 1
NCI-H3122 | 0.964
NCI-H1437 | 1.29
NCI-H1755 | 0.93
HCC-15 | 1.02
PC-14 | 1.01
EKVX | 0.433

same assay, conditions: first compound 8 µM

Cell Line | relative viability
NCI-H2170 | 0.934
NCI-H2405 | 0.746
HOP-62 | 1.13
LU99A | 0.751
BEN | 0.833
HARA | 0.633
HCC-78 | 0.644
NCI-H322M | 1.1
LCLC-97TM1 | 1.02
A-427 | 1.13
NCI-H441 | 1.06
NCI-H1734 | 0.829
NCI-H460 | 0.966
NCI-H2347 | 1.04
NCI-H1395 | 1.07
201T | 1.19

Cell Line | relative viability
NCI-H1915 | 1.1
HCC-827 | 1.09
LXF-289 | 0.956
NCI-H23 | 1.07
NCI-H647 | 1.12
CAL-12T | 1.36
NCI-H1651 | 0.84
EPLC-272H | 0.698
NCI-H1355 | 1.01
NCI-H3122 | 1.05
NCI-H1437 | 1.18
NCI-H1755 | 0.9
HCC-15 | 1.02
NCI-H1793 | 0.572
PC-14 | 0.937
EKVX | 0.75
